Results: patent publication US20230416692A1 (BOARD OF REGENTS, THE UNIVERSITY OF TEXAS SYSTEM, priority 2020, published 2023)
Where two headings read alike, the source gives them in different places.

Key:
SARS-CoV-2-Nluc = experiment: microbe, parasite or virus in culture; format: cell-based
icSARS-CoV-2-mNG = format: cell-based, SARS-CoV-2
plasma protein = details: data from literature; cited from earlier work
[1] = human exposures in the clinics, cited from earlier work; for Cmax: read-out: Exposure (μM): Cmax
[2] = Severe acute respiratory syndrome coronavirus 2, 48 h

Compound | EC50 (SARS-CoV-2-Nluc; [2]) | CC50 (A549-hACE2 cells; human) | other results
CC(C)OC(=O)[C@H](C)N[P@+]([O-])(OC[C@H]1O[C@@](C#N)(c2ccc3c(N)ncnn23)[C@](C)(O)[C@@H]1OC(=O)C(C)C)Oc1ccccc1 [GS-6620] | – | – | EC50 (SARS-CoV-2-Nluc; read-out: EC50): > 10 µM; CC50 (A549-hACE2 cells): > 50 µM
C[C@@]1(O)[C@H](O)[C@@H](CO)O[C@H]1n1ccc2c(N)ncnc21 [MK-0608] | – | – | EC50 (SARS-CoV-2-Nluc; read-out: EC50): > 10 µM; CC50 (A549-hACE2 cells): > 50 µM
CC(C)c1nc(CN(C)C(=O)N[C@H](C(=O)N[C@@H](Cc2ccccc2)C[C@H](O)[C@H](Cc2ccccc2)NC(=O)OCc2cncs2)C(C)C)cs1 [Ritonavir] | > 10 µM | – | activity against SARS-CoV-2-Nluc (in words) (SARS-CoV-2-Nluc): inactive
IFN-α | – | – | EC50 (concentration inhibiting 50% of viral replication) (icSARS-CoV-2-mNG): 101 u/ml; mNG expression (visual) (icSARS-CoV-2-mNG): No mNG expression was visually observed; mNG signal (icSARS-CoV-2-mNG): dose-dependent reduction of mNG signal
COC(=O)N[C@H](C(=O)N[C@@H](Cc1ccccc1)[C@@H](O)CN(Cc1ccc(-c2ccccn2)cc1)NC(=O)[C@@H](NC(=O)OC)C(C)(C)C)C(C)(C)C [Atazanavir] | > 10 µM | > 50 µM | activity against SARS-CoV-2-Nluc (in words) (SARS-CoV-2-Nluc): inactive; Plasma protein binding (%) (plasma protein): 86%
NC(=O)c1ncn([C@@H]2O[C@H](CO)[C@@H](O)[C@H]2O)n1 [Ribavirin] | > 10 µM | > 50 µM | –
COc1ccc2c(O[C@@H]3C[C@H]4C(=O)N[C@]5(P(=O)(O)Cc6c(F)cccc6F)C[C@H]5CCCCCCC[C@H](NC(=O)OC5CCCC5)C(=O)N4C3)cc(-c3csc(NC(C)C)n3)nc2c1Cl [GS-9256] | – | – | EC50 (SARS-CoV-2-Nluc; read-out: EC50): > 10 µM; CC50 (A549-hACE2 cells): 31.8 ± 10.9 µM
CC(C)[C@@]1(C(=O)N[C@H]2CC(=O)O[C@]2(O)CF)CC(c2nccc3ccccc23)=NO1 [Nivocasan] | – | – | activity against SARS-CoV-2-Nluc (in words) (SARS-CoV-2-Nluc): inactive; EC50 (SARS-CoV-2-Nluc; read-out: EC50): > 10 µM; CC50 (A549-hACE2 cells): > 50 µM
CCOc1nc(N)nc2c1ncn2[C@@H]1O[C@@H]2COP(=O)(OC(C)C)O[C@H]2[C@@]1(C)F (stereo partly drawn) [PSI-352938] | > 10 µM | > 50 µM | –
CC(C)(C)NC(=O)[C@@H]1CN(Cc2cccnc2)CCN1C[C@@H](O)C[C@@H](Cc1ccccc1)C(=O)N[C@H]1c2ccccc2C[C@H]1O [Indinavir] | > 10 µM | > 50 µM | activity against SARS-CoV-2-Nluc (in words) (SARS-CoV-2-Nluc): inactive
CC(C)(C)NC(=O)[C@@H]1C[C@@H]2CCCC[C@@H]2CN1C[C@@H](O)[C@H](Cc1ccccc1)NC(=O)[C@H](CC(N)=O)NC(=O)c1ccc2ccccc2n1 [Saquinavir] | 8 to 9 µM | 35.1 ± 11.7 µM | EC50 (SARS-CoV-2-Nluc): 8.95 ± 0.31 µM; SI (selectivity index) (SARS-CoV-2-Nluc): 3.9; Exposure (μM): Cmin [1]: 0.65 µM; Cmax [1]: 3.7 µM; Plasma protein binding (%) (plasma protein): 98%
Nc1nc(=O)n([C@@H]2CS[C@H](CO)O2)cc1F [Emtricitabine] | > 10 µM | > 50 µM | activity against SARS-CoV-2-Nluc (in words) (SARS-CoV-2-Nluc): inactive; Cmax [1]: 7.9 µM; Plasma protein binding (%) (plasma protein): 4%
COC(=O)N[C@H](C(=O)N1CC2(CC2)C[C@H]1c1ncc(-c2ccc3c(c2)C(F)(F)c2cc(-c4ccc5nc([C@@H]6[C@H]7CC[C@H](C7)N6C(=O)[C@@H](NC(=O)OC)C(C)C)[nH]c5c4)ccc2-3)[nH]1)C(C)C [Ledapisvir] | > 10 µM | > 50 µM | activity against SARS-CoV-2-Nluc (in words) (SARS-CoV-2-Nluc): inactive
Cc1cccc(C)c1OCC(=O)N[C@@H](Cc1ccccc1)[C@@H](O)C[C@H](Cc1ccccc1)NC(=O)[C@H](C(C)C)N1CCCNC1=O [Lopinavir] | 8 to 9 µM | 31.5 ± 2.5 µM | EC50 (SARS-CoV-2-Nluc): 9 ± 0.42 µM; Plasma protein binding (%) (plasma protein): 98-99%
CC1=CC[C@H](C(=O)N(c2cc(C#CC(C)(C)C)sc2C(=O)O)[C@H]2CC[C@](O)(CO[C@H]3CCOC3)CC2)CC1 [Radalbuvir] | > 10 µM | > 50 µM | –
C=C1[C@H](CO)[C@@H](O)C[C@@H]1n1cnc2c(=O)[nH]c(N)nc21 [Entecavir] | > 10 µM | > 50 µM | –
CC#CC(=O)N1CC[C@@H](n2c(=O)n(-c3ccc(Oc4ccccc4)cc3)c3c(N)ncnc32)C1 [Tirabrutinib] | > 10 µM | > 50 µM | –
O=C1c2c(O)c(=O)ccn2N([C@@H]2c3ccccc3SCc3c2ccc(F)c3F)[C@@H]2COCCN12 [Baloxavir] | > 10 µM | 47 ± 1.3 µM | –
Nc1ccn([C@@H]2O[C@@](CO)(CCl)[C@@H](O)[C@H]2F)c(=O)n1 [ALS-8112] | > 10 µM | > 50 µM | –
CCOC(=O)/C=C/[C@H](C[C@@H]1CCNC1=O)NC(=O)[C@@H](CC(=O)[C@@H](NC(=O)c1cc(C)on1)C(C)C)Cc1ccc(F)cc1 [Rupintrivir] | – | > 50 µM | EC50 (SARS-CoV-2-Nluc): 1.87 ± 0.47 µM; SI (selectivity index) (SARS-CoV-2-Nluc): >26.7; EC50 (SARS-CoV-2-Nluc; Severe acute respiratory syndrome coronavirus 2): 0.77 to 2.74 µM
C=CC(=O)N1CCC[C@@H](n2nc(-c3ccc(Oc4ccccc4)cc3)c3c(N)ncnc32)C1 [Ibrutinib] | > 10 µM | > 50 µM | –
